From patent US20240374607A1, “MEDICAMENT FOR PREVENTING AND/OR TREATING DRY EYE” (Santen Pharmaceutical Co., Ltd., priority 2021, published 2024)

Assays:
[1] = tested on: normal male cynomolgus monkeys; assay: Tear film break-up time (TBUT) after single ocular instillation, Tests 1 and 2; conditions: for Extension of TBUT: 1% (w/v) ophthalmic solution, single ocular instillation, FIG. 2
Description: TBUT measurement tests were conducted for 10 normal male cynomolgus monkeys by partial crossover design of 5 monkeys per group. The test animals were given general anesthesia by intramuscular injection with ketamine hydrochloride (Ketalar for intramuscular injection 500 mg (registered trademark), Daiichi Sankyo Company, Limited.), and then were let their eyes closed. Then, TBUT was measured before and at 15, 30, and 60 minutes after ocular instillation of a vehicle or each ophthalmic solution (20 μL/eye) to the right eye. Specifically, 1% fluorescein solution (2 μL/eye) was instilled, and the time right after opening of the eyelids until breaking of the fluorescein layer (tear film) on the cornea was measured three times under a slit lamp, followed by calculation of the average. (N=5 eyes)
TBUT was measured in a similar manner to the method of Test 1. (N=4 or 5 eyes)

[2] = tested on: dry-eye model SD rat with exorbital lacrimal gland removed; assay: Quantity of tears by Schirmer strip in dry-eye model, Tests 3 and 4; assay type: in vivo; conditions: for Incremental difference in Schirmer's test at 0.5 hours after ocular instillation / Incremental difference in Schirmer's test at 8 hours after ocular instillation: 5 μL/eye, difference from vehicle-instilled group
Description: A somnopentyl injection five-fold diluted with physiological saline was intraperitoneally administered to a normal male SD (Sprague-Dawley) rat by 2.5 mL/kg, and the rat was given general anesthesia, followed by keeping the anesthetized state by inhalation of about 1 to 3% isoflurane. Then, the skin on each check was incised to remove the exorbital lacrimal gland, followed by suturation with a Michel suture clamp. In this test, an individual wherein reduction of tears was confirmed after 13 weeks from the removal of exorbital lacrimal gland was included as the experimental animal.
Half an hour after treatment of general anesthesia, Schirmer strip (1 mm×17 mm) was inserted to conjunctival sac of the lower eyelid of a rat, and then after 1 minute of the insertion, the wet part of the Schirmer strip was measured in increments of 0.5 mm. (N=14 or 16 eyes)
The quantity of tears was measured in a similar manner to Test 3. (N=10 eyes)
The following Tables 1 and 2 show incremental differences (mm/min) in Schirmer's test between the vehicle-instilled group and the ophthalmic-solution-instilled groups at 0.5 and 8 hours, respectively, after ocular instillation according to the results of Test 3 and Test 4. The symbol “-” in Tables 1 and 2 means not-performed.

[3] = tested on: normal male cynomolgus monkeys; assay: Intraocular pressure test, twice daily repeated instillation, Test 5; assay type: in vivo, cynomolgus monkey; conditions: 20 μL/eye twice daily, Day 1, 7 and 14, FIG. 4
Description: Specifically, one drop of 0.4% oxybuprocaine hydrochloride ophthalmic solution (trade name: Benoxil (registered trademark) ophthalmic solution 0.4%) was instilled to the right eye so as to provide surface anesthesia, and then the intraocular pressure was measured three times with Mentor tonometer (applanation), followed by calculation of the average. (N=6 eyes)

[4] = tested on: dry-eye model rat whose exorbital lacrimal gland is excised; assay: Tear film break-up time in dry-eye model rat, Test 6; assay type: in vivo; conditions: concentration of 0.00001% or more, 5 μL/eye, 0.5 and 2 hours after ocular instillation; FIG. 5
Description: A male SD rat was given general anesthesia, the skin on each […] cheek was incised under the anesthetized state, and then the exorbital lacrimal gland was excised to prepare a dry-eye model rat whose exorbital lacrimal gland is excised.
Untreated normal rats were assigned to an untreated group, and dry-eye model rats whose exorbital lacrimal gland is excised were assigned to a vehicle group and each ophthalmic solution group, each group consisting of 6 rats. For each group, TBUT measurement tests were conducted.

SMILES | Extension of TBUT [1] | Incremental difference in Schirmer's test at 0.5 hours after ocular instillation ([2]; 0.001% ophthalmic solution) | Incremental difference in Schirmer's test at 8 hours after ocular instillation ([2]; 0.001% ophthalmic solution, 8 hours) | Incremental difference in Schirmer's test at 0.5 hours after ocular instillation ([2]; 0.01% ophthalmic solution) | Incremental difference in Schirmer's test at 8 hours after ocular instillation ([2]; 0.01% ophthalmic solution, 8 hours) | Incremental difference in Schirmer's test at 0.5 hours after ocular instillation ([2]; 0.1% ophthalmic solution) | Incremental difference in Schirmer's test at 8 hours after ocular instillation ([2]; 0.1% ophthalmic solution, 8 hours) | Incremental difference in Schirmer's test at 0.5 hours after ocular instillation ([2]; 1% ophthalmic solution) | Incremental difference in Schirmer's test at 8 hours after ocular instillation ([2]; 1% ophthalmic solution, 8 hours) | TBUT-extending effect ([1]; 0.0001, 0.001, 0.01% (w/v), single ocular instillation 20 μL/eye, 15, 30, 60 minutes, FIG. 1) | Lacrimal secretion at 8 hours after ocular instillation ([2]; 0.0001 to 0.01% instilled groups, 8 hours, FIG. 3) | Tear volumes at 16 hours after ocular instillation ([2]; 0.001 and 0.01% instilled groups, 16 hours, FIG. 3) | Lacrimal secretion ([2]; olodaterol-instilled groups 0.00001 to 0.01%, FIG. 3) | Effect on intraocular pressure ([3]; 0.01% ophthalmic solution) | Effect on intraocular pressure ([3]; 0.1% ophthalmic solution) | TBUT-extending effect [4]
CC(C)(C)NCC(O)c1cc(Cl)c(N)c(Cl)c1 (centres unmarked) [clenbuterol] | not confirmed | – | – | – | – | – | – | – | – | – | – | – | – | – | – | –
CC(Cc1ccc(O)cc1)NCC(O)c1cc(O)cc(O)c1 (centres unmarked) [fenoterol] | not confirmed | 1.8 mm/min | 0.0 mm/min | 4.8 mm/min | 0.2 mm/min | 6.1 mm/min | 0.9 mm/min | 3.6 mm/min | 1.1 mm/min | – | – | – | – | – | – | –
COc1ccc(CC(C)(C)NC[C@H](O)c2cc(O)cc3c2OCC(=O)N3)cc1 [olodaterol, 6-hydroxy-8-((1R)-1-hydroxy-2-{[2-(4-methoxyphenyl)-1,1-dimethylethyl]amino}&shy;ethyl)-2H-1,4-benzoxazin-3-(4H)-one] | – | – | – | – | – | – | – | – | – | confirmed in a concentration-dependent manner | highly enhanced | increase of tear volumes was observed | lacrimal secretion was enhanced | did not show increase and/or decrease the intraocular pressure | did not show increase and/or decrease the intraocular pressure | TBUT-extending effect was confirmed
